Reference: patent US20200291018A1, “TAM KINASE INHIBITORS” (SYROS PHARMACEUTICALS, INC., priority 2017, published 2020)

Legend:
MERTK = biological target: T1, MERTK (Homo sapiens, UniProt Q12866); assay: TR-FRET kinase activity assay, MERTK; format: biochemical; settings: for IC50: TR-FRET activity assay, ATP at Km, 60 minutes, read-out: Mer IC50; for Mer/Flt3 ratio (FLT3 IC50/Mer IC50): ratio calculated as FLT3 IC50/Mer IC50
T1 sequence (Q12866 21-999): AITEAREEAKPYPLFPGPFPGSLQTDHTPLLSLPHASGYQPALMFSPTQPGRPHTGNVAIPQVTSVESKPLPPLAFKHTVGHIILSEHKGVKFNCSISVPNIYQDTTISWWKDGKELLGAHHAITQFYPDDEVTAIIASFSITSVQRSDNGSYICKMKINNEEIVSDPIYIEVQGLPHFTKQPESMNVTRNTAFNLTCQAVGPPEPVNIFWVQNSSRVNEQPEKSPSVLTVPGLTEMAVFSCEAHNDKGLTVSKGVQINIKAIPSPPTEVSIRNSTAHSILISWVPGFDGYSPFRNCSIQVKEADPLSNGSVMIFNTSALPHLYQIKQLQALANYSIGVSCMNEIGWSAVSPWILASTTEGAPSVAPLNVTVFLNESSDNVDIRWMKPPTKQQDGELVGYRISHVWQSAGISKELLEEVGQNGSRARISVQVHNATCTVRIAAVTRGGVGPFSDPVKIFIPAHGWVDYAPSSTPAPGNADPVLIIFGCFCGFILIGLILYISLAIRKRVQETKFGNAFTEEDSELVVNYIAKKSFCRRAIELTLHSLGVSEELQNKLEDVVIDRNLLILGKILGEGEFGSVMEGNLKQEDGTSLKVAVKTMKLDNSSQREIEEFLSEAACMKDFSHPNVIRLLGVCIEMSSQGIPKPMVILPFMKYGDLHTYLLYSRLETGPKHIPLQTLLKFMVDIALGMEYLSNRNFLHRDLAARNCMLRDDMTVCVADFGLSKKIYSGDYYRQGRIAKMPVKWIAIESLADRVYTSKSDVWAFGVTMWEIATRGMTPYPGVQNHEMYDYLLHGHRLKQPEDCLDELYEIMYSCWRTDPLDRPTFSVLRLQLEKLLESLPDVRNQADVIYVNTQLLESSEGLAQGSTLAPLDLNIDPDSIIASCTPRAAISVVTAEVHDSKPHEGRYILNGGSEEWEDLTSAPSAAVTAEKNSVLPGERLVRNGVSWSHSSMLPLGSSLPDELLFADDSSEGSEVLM
Method in brief: (§1)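 Steps: compound, enzyme and labeled peptide combined at RT (50 mM HEPES pH 7.5, 10 mM MgCl2, 1 mM DTT); ATP added at Km; 60 min reaction; EDTA quench; Eu-antibody development 30 min in darkness; TR-FRET measured and IC50 fitted.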

FLT3 = biological target: T2, FLT3 (Homo sapiens, UniProt P36888); assay: TR-FRET kinase activity assay, FLT3; format: biochemical; settings: ATP at Km, 60 minutes
T2 sequence (P36888 27-993): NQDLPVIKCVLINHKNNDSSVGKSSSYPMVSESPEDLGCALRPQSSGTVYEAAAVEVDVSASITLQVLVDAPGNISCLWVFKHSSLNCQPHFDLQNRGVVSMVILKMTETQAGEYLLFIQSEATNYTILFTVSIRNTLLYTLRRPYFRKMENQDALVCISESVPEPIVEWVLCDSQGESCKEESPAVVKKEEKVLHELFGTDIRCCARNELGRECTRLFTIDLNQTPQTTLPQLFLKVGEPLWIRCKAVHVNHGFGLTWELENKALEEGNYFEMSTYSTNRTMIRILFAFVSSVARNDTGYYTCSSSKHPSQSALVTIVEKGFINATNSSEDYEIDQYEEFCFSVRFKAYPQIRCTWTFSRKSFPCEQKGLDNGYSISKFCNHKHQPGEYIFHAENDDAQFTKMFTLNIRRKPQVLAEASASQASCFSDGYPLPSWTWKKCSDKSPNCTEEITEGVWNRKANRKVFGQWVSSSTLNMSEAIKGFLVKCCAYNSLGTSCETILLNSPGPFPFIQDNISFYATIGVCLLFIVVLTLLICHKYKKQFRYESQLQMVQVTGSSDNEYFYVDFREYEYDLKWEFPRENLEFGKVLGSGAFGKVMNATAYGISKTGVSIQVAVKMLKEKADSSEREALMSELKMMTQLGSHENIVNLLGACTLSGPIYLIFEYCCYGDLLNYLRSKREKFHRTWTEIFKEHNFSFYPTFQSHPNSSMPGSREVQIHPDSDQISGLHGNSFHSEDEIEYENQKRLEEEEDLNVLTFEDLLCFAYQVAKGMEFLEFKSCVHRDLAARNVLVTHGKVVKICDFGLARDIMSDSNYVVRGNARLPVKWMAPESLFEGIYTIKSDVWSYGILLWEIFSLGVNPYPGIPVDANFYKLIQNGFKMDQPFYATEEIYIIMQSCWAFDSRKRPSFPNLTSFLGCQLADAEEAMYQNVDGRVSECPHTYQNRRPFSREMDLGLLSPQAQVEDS
Method in brief: as §1

Row | IC50 (MERTK) [µM] | Mer/Flt3 ratio (FLT3 IC50/Mer IC50) (MERTK) | IC50 (FLT3) [µM] | Compound
1 | ≤ 0.1 | +++ (a ratio of >100) | 1 to 10 | CCCC(C)Nc1ncc2c(=O)n(C3CCNCC3)cc([C@H]3CC[C@H](O)CC3)c2n1 (stereo partly drawn) [Compound 112]
2 | ≤ 0.1 | + (a ratio of >2.0 and <10) | 0.1 to 1 | CCCCNc1cc2c(cn1)c(=O)n(C1CCN(C)CC1)cc2[C@H]1CC[C@H](O)CC1 [Compound 116]
3 | ≤ 0.1 | +++ (a ratio of >100) | 1 to 10 | CCCC(C)Nc1ncc2c(=O)n(C3CCN(C)CC3)cc([C@H]3CC[C@H](O)CC3)c2n1 (stereo partly drawn) [Compound 117]
4 | ≤ 0.1 | +++ (a ratio of >100) | 1 to 10 | CC(C)CC(C)Nc1ncc2c(=O)n(C3CCNCC3)cc([C@H]3CC[C@H](O)CC3)c2n1 (stereo partly drawn) [Compound 119]
5 | 0.1 to 1 | ++ (a ratio of between 10 and 100) | 1 to 10 | CS(=O)(=O)N1CC[C@H](Nc2ncc3c(OC4CCOCC4)ncc([C@H]4CC[C@H](O)CC4)c3n2)C1 [Compound 278]
6 | 0.1 to 1 | ++ (a ratio of between 10 and 100) | 1 to 10 | COC[C@H](C)Nc1ncc2c(OC3CCOCC3)ncc(-c3ccc(N4CCN(C)CC4)cc3)c2n1 [Compound 279]
7 | ≤ 0.1 | ++ (a ratio of between 10 and 100) | 1 to 10 | COC[C@H](C)Nc1ncc2c(OC3CCOCC3)ncc(-c3ccc(C4CCN(C)CC4)cc3)c2n1 [Compound 280]
8 | ≤ 0.1 | +++ (a ratio of >100) | 1 to 10 | CCOC[C@H](C)Nc1ncc2c(OC3CCOCC3)ncc([C@H]3CC[C@H](O)CC3)c2n1 [Compound 281]
9 | 1 to 10 | ++ (a ratio of between 10 and 100) | 1 to 10 | CN1CC(Nc2ncc3c(OC4CCOCC4)ncc([C@H]4CC[C@H](O)CC4)c3n2)CC1=O (stereo partly drawn) [Compound 282]
10 | ≤ 0.1 | +++ (a ratio of >100) | 0.1 to 1 | O=C(O)c1ccc(Nc2ncc3c(OC4CCNCC4)ncc([C@H]4CC[C@H](O)CC4)c3n2)cc1 [Compound 283]
11 | ≤ 0.1 | +++ (a ratio of >100) | 1 to 10 | C[C@@H](CCO)Nc1ncc2c(OC3CCOCC3)ncc([C@H]3CC[C@H](O)CC3)c2n1 [Compound 284]
12 | ≤ 0.1 | +++ (a ratio of >100) | 1 to 10 | COC[C@H](C)Nc1cc2c(cn1)c(OC1CCOCC1)ncc2[C@H]1CC[C@H](O)CC1 [Compound 285]
13 | ≤ 0.1 | + (a ratio of >2.0 and <10) | ≤ 0.1 | O[C@H]1CC[C@H](c2cnc(OC3CCOCC3)c3cnc(NCCC(F)(F)F)nc32)CC1 [Compound 286]
14 | ≤ 0.1 | ++ (a ratio of between 10 and 100) | 0.1 to 1 | CC[C@H](C)Nc1ncc2c(O[C@H]3CC[C@](C)(O)CC3)ncc([C@H]3CC[C@H](O)CC3)c2n1 [Compound 287]
15 | ≤ 0.1 | +++ (a ratio of >100) | 0.1 to 1 | CC(C)Nc1ncc2c(OC3CCOCC3)ncc(-c3cccc(S(=O)(=O)N(C)C)c3)c2n1 [Compound 288]
16 | ≤ 0.1 | +++ (a ratio of >100) | 1 to 10 | COC[C@H](C)Nc1ncc2c(OC3CCN(S(C)(=O)=O)CC3)ncc([C@H]3CC[C@H](O)CC3)c2n1 [Compound 289]

Row | IC50 (MERTK) [µM] | Mer/Flt3 ratio (FLT3 IC50/Mer IC50) (MERTK) | IC50 (FLT3) [µM] | Compound
17 | ≤ 0.1 | +++ (a ratio of >100) | 1 to 10 | CC[C@H](C)Nc1ncc2c(=O)n([C@H]3CC[C@H](N)CC3)cc([C@H]3CC[C@H](O)CC3)c2n1 [Compound 290]
18 | ≤ 0.1 | +++ (a ratio of >100) | 1 to 10 | CC1(Nc2ncc3c(OC4CCNCC4)ncc([C@H]4CC[C@H](O)CC4)c3n2)CC1 [Compound 291]
19 | ≤ 0.1 | +++ (a ratio of >100) | 1 to 10 | C[C@@H](CC#N)Nc1ncc2c(OC3CCOCC3)ncc([C@H]3CC[C@H](O)CC3)c2n1 [Compound 292]
20 | ≤ 0.1 | +++ (a ratio of >100) | 1 to 10 | COC[C@H](C)Nc1ncc2c(OC3CCOCC3)ncc([C@H]3CC[C@](C)(O)CC3)c2n1 [Compound 293]
21 | ≤ 0.1 | +++ (a ratio of >100) | 1 to 10 | COC[C@H](C)Nc1ncc2c(OC3CCOCC3)ncc([C@H]3CC[C@@](C)(O)CC3)c2n1 [Compound 294]
22 | ≤ 0.1 | +++ (a ratio of >100) | 1 to 10 | COC[C@H](C)Nc1ncc2c(O[C@H]3C[C@H](O)C3)ncc([C@H]3CC[C@H](O)CC3)c2n1 [Compound 295]
23 | ≤ 0.1 | +++ (a ratio of >100) | 1 to 10 | COC[C@H](C)Nc1ncc2c(O[C@H]3C[C@@H](O)C3)ncc([C@H]3CC[C@H](O)CC3)c2n1 [Compound 296]
24 | 0.1 to 1 | ++ (a ratio of between 10 and 100) | 1 to 10 | CNC(=O)Nc1ccc(-c2cnc(OC3CCOCC3)c3cnc(N[C@@H](C)COC)nc23)cc1 [Compound 297]
25 | ≤ 0.1 | +++ (a ratio of >100) | 1 to 10 | CC[C@H](C)Nc1ncc2c(O[C@H]3CC[C@@H](N(C)C)C3)ncc([C@H]3CC[C@H](O)CC3)c2n1 [Compound 298]
26 | ≤ 0.1 | ++ (a ratio of between 10 and 100) | ≤ 0.1 | O[C@H]1CC[C@H](c2cnc(OC3CCNCC3)c3cnc(Nc4ccc(Cl)c(Cl)c4)nc32)CC1 [Compound 299]
27 | ≤ 0.1 | ++ (a ratio of between 10 and 100) | 0.1 to 1 | CCc1cc(Nc2ncc3c(OC4CCNCC4)ncc([C@H]4CC[C@H](O)CC4)c3n2)ccc1Cl [Compound 300]
28 | ≤ 0.1 | +++ (a ratio of >100) | 1 to 10 | COC[C@H](C)Nc1ncc2c(OC3CCOCC3)ncc(-c3ccc(O)cc3)c2n1 [Compound 301]
29 | 0.1 to 1 | ++ (a ratio of between 10 and 100) | 1 to 10 | COC[C@H](C)Nc1ncc2c(O[C@H]3CCNCC3(F)F)ncc([C@H]3CC[C@H](O)CC3)c2n1 [Compound 302]
30 | ≤ 0.1 | +++ (a ratio of >100) | 1 to 10 | COC[C@H](C)Nc1ncc2c(C)ncc([C@H]3CC[C@H](O)CC3)c2n1 [Compound 303]
31 | ≤ 0.1 | +++ (a ratio of >100) | 1 to 10 | C[C@@H](CF)Nc1ncc2c(OC3CCOCC3)ncc([C@H]3CC[C@H](O)CC3)c2n1 [Compound 304]
